Measured values taken from ChEMBL document CHEMBL1128654, “4,4-Diphenyl-7-perhydrothiapyrano[3,4-c]pyrrolone, a new series of substance P receptors antagonists” (Bioorg Med Chem Lett, 1995).

Experiments:
Substance-P receptor [1] = target: Substance-P receptor (Homo sapiens, UniProt P25103); test: Compound was tested for its binding affinity to NK1 receptor in [3H]SP binding assay on human IM9 lymphoblasts cultured cell line.
Substance-P receptor [2] = target: Substance-P receptor (Rattus norvegicus, UniProt P14600); test: Compound was tested for its binding affinity to NK1 receptor in [3H]SP binding assay on rat brain membranes.
Rattus norvegicus [3] = test: Compound was administered intravenously and evaluated in vivo for its inhibition of SP-induced plasma extravasation in rat; assay type: functional; details: iv
Rattus norvegicus [4] = test: Compound was administered orally and evaluated in vivo for its inhibition of SP-induced plasma extravasation in rat; assay type: functional; details: po
Rattus norvegicus [5] = test: Compound was administered perorally and evaluated in vivo for its inhibition of SP-induced plasma extravasation in rat; assay type: functional; details: po

Chain of Substance-P receptor (Homo sapiens, UniProt P25103) (P25103 whole entry): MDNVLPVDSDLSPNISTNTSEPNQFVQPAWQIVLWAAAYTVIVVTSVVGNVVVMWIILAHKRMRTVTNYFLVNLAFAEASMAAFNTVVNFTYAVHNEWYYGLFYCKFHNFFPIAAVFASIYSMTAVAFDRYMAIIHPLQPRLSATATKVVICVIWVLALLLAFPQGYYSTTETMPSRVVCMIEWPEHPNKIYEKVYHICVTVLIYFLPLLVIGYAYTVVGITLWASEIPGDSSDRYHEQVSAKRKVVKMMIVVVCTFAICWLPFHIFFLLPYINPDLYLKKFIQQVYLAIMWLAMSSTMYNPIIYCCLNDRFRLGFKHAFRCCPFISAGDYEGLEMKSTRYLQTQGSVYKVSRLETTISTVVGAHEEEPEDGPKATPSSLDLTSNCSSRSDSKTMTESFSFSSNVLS
Chain of Substance-P receptor (Rattus norvegicus, UniProt P14600) (P14600 whole entry): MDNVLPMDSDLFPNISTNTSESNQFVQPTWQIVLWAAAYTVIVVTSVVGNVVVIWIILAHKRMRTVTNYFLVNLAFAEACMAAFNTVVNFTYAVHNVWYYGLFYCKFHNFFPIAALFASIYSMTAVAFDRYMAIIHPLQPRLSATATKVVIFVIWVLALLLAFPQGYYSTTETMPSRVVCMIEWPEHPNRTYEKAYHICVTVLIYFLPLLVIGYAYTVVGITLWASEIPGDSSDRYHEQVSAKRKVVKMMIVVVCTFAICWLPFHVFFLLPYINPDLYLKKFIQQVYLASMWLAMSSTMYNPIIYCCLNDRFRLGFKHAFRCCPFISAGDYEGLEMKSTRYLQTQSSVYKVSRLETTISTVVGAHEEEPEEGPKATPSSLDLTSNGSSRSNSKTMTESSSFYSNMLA

SMILES	IC50 (Substance-P receptor [1]) [nM]	IC50 (Substance-P receptor [2]) [nM]	ED50 (Rattus norvegicus [3]) [mg/kg]	ED50 (Rattus norvegicus [4]) [mg/kg]	ED50 (Rattus norvegicus [5]) [mg/kg]
CN(C)CCCOc1ccccc1CC(=O)N1CC2C(=O)CSC(c3ccccc3)(c3ccccc3)C2C1 (stereo unspecified)	51	26			
COc1ccccc1[C@H](C)C(=O)N1C[C@@H]2[C@H](C1)[C@@](O)(c1ccccc1OC)CSC2(c1ccccc1)c1ccccc1	38	3000			
COc1ccccc1CC(=N)N1C[C@@H]2C(=O)CCC(c3ccccc3)(c3ccccc3)[C@@H]2C1	49	8			
COc1ccccc1CC(=N)N1CC2C(=O)CSC(c3ccccc3)(c3ccccc3)C2C1 (stereo unspecified)	9	2	< 1	> 10	
COc1ccccc1[C@H](C)C(=O)N1C[C@@H]2[C@H](C1)C(c1ccccc1)(c1ccccc1)CC[C@@]2(O)c1ccccc1OC [DAPITANT]	13	1400			
COc1ccccc1[C@H](SC)C(=O)N1CC2C(=O)CSC(c3ccccc3)(c3ccccc3)C2C1 (stereo partly specified)	15	5	0.1		0.8

Continued, in another order:

IC50 (Substance-P receptor [1]) [nM]	IC50 (Substance-P receptor [2]) [nM]	SMILES	ED50 (Rattus norvegicus [3]) [mg/kg]	ED50 (Rattus norvegicus [4]) [mg/kg]	ED50 (Rattus norvegicus [5]) [mg/kg]
	470	CN(C)c1ccccc1CC(=O)N1C[C@@H]2C(=O)C[S+]([O-])C(c3ccccc3)(c3ccccc3)[C@@H]2C1 (stereo partly specified)			
83	41	CN(C)c1ccccc1CC(=O)N1CC2C(=O)CSC(c3ccccc3)(c3ccccc3)C2C1 (stereo unspecified)			
370	77	CN(C)c1ccccc1CC(=O)N1C[C@H]2[C@@H](C1)C(c1ccccc1)(c1ccccc1)SC[C@@H]2O			
